# Results reported in patent publication US12448369B2 (Edgewise Therapeutics, Inc., priority 2023, dated 2025).
# Experiments:
# [1] = test system: Rabbit Psoas myofibrils (skeletal myosin ATPase); assay: Myofibril ATPase assay, rabbit psoas (skeletal) myofibrils; type: biochemical; conditions: rabbit psoas myofibrils
# Summary of the method: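 Myofibrils homogenized in Triton X-100 buffer were assayed in pH 7.0 PIPES with defined Ca2+/EGTA. Myosin-driven ADP formation was coupled to NADH oxidation, with depletion monitored at 340 nm. Each value is the concentration that lowers activity to 75% of vehicle or, for activators, raises it to 125%.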
# [2] = test system: Porcine atria myofibrils (atrial myosin ATPase); assay: Myofibril ATPase assay, porcine atria myofibrils; type: biochemical; conditions: porcine atria myofibrils
# Summary of the method: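 Values are Y75 (concentration cutting ATPase activity to 75% of vehicle) or Y125 (raising it to 125%), taken from 4-parameter logistic fits. Rates come from NADH disappearance at 340 nm in a PK/LDH-coupled assay with porcine atria myofibrils.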
# [3] = biological target: T1, Porcine ventricle myofibrils (ventricular myosin ATPase) (Sus scrofa, UniProt P79293); assay: Myofibril ATPase assay, porcine ventricle myofibrils; type: biochemical, porcine (Yucatan minipigs); conditions: porcine ventricle myofibrils
# T1 construct: Myofibrils from porcine cardiac muscle was isolated from the left ventricle of Yucatan minipigs; tissue Exemplar Genetics; host or cells: left ventricle of Yucatan minipigs, myofibrils prepared in house
# Summary of the method: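 Test compounds acted on myofibrils isolated from the left ventricle of Yucatan minipigs. ADP formation was coupled via pyruvate kinase/lactate dehydrogenase to NADH oxidation, monitored kinetically at 340 nm over 75 min. Rates relative to vehicle were fitted with a 4-parameter logistic model, reported as Y75 (25% inhibition) or Y125 (activation) concentrations.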
# [4] = Y75 value (75% activity relative to no compound)
# T1 sequence (P79293 whole entry): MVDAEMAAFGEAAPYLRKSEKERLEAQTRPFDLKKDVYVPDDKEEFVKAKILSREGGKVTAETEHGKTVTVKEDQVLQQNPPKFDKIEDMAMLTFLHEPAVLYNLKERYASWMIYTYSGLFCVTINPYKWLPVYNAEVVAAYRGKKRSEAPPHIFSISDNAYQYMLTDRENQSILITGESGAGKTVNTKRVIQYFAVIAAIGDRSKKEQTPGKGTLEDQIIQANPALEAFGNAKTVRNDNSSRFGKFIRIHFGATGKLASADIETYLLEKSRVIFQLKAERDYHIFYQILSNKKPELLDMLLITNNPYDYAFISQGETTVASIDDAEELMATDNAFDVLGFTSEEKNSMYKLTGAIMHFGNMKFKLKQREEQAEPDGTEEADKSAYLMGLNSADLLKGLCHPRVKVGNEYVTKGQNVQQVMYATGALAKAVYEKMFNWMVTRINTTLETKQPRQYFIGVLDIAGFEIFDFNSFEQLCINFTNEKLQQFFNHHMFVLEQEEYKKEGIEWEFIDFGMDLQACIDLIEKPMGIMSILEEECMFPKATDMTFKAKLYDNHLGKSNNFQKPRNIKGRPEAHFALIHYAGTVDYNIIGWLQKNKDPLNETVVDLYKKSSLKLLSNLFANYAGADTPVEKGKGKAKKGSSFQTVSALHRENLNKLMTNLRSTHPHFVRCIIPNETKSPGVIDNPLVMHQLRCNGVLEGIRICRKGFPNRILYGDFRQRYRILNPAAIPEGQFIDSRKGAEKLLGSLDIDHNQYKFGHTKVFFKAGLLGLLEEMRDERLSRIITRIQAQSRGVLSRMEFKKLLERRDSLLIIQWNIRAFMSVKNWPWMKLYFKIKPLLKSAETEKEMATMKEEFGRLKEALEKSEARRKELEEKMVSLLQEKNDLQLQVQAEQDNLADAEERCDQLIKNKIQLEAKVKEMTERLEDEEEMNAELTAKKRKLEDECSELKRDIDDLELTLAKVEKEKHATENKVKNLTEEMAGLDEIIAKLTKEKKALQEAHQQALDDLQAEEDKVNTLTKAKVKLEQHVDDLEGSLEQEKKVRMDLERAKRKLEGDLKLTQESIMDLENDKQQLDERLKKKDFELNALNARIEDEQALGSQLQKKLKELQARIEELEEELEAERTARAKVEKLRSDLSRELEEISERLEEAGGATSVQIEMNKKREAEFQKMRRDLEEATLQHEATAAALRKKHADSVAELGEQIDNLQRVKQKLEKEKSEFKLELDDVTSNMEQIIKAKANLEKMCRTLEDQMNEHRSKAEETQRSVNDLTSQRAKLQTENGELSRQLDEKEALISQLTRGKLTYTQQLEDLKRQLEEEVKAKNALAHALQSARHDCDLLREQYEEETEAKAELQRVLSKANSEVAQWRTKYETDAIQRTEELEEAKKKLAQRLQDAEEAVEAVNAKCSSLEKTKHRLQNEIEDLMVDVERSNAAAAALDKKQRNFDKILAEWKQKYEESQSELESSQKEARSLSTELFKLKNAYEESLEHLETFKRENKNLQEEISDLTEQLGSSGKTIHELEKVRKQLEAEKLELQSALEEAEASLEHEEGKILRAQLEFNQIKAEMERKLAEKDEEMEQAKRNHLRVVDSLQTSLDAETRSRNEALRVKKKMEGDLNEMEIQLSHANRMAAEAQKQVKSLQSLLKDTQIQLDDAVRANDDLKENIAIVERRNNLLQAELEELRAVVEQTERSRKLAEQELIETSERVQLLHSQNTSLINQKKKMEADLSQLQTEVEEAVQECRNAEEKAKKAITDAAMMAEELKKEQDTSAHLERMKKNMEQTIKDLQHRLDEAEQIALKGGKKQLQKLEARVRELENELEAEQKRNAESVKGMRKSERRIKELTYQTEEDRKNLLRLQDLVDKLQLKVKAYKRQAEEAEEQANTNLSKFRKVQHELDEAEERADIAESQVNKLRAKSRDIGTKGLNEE
SMILES,Skeletal EC25 ([1]; Y75 value) [µM],"Atrial EC25 [2, 4] [µM]",Ventricular EC25 ([3]; Y75 value) [µM],Skeletal EC25 ([1]; Y75 value (no ‡ mark)) [µM],Atrial EC25 ([2]; Y75 value (no ‡ mark)) [µM],Ventricular EC25 ([3]; Y75 value (no ‡ mark)) [µM]
"Cc1nccc2[nH]c(=O)c([C@H](C)C(=O)N[C@H](C)c3ncc(C#N)cc3F)c(C)c12 (single isomer, unassigned) [compound 192]",0.55,0.59,14.65,,,
"O=C(Cc1cc2c(F)c(F)ccc2[nH]c1=O)N[C@H]1COc2ncccc21 (single isomer, unassigned) [compound 64]",,,,83.26,100.00,100.00
"Cc1nccc2[nH]c(=O)c(CC(=O)N[C@H](C)c3ncccc3F)c(C)c12 (single isomer, unassigned) [compound 267]",100.00,100.00,100.00,,,
C[C@H](NC(=O)Cc1c(C(F)(F)F)c2cnccc2[nH]c1=O)c1ccc(F)cc1F [compound 447],0.05,0.25,10.16,,,
Cc1nccc2[nH]c(=O)c(CC(=O)N[C@@H](CO)Cc3ccccc3)c(C)c12 [compound 496],100.00,100.00,100.00,,,
"Cc1nccc2[nH]c(=O)c([C@H](C)C(=O)N[C@@H](C)c3ncc(C#N)cc3F)c(C)c12 (single isomer, unassigned) [compound 194]",1.22,5.87,100.00,,,
"Cc1c(CC(=O)N[C@@H](CO)c2ncccc2F)c(=O)[nH]c2ccnc(C#N)c12 (single isomer, unassigned) [compound 236]",0.59,38.11,100.00,,,
"Cc1c([C@H](C)C(=O)N[C@@H](C)c2ncc(C#N)cc2F)c(=O)[nH]c2ccc(F)c(F)c12 (single isomer, unassigned) [compound 2603]",,,,0.03,0.06,0.21
Cc1c(CC(=O)N[C@@H](C)c2ccc(F)cc2F)c(=O)[nH]c2ccnc(OCC(F)F)c12 [compound 380],0.01,0.06,0.77,,,
Cc1nccc2[nH]c(=O)c(CC(=O)N[C@H](C)c3ccc(C#N)cc3F)c(C#N)c12 [compound 153],3.09,19.40,100.00,,,
Cc1c(CC(=O)N[C@@H](C)c2ccc(F)cc2F)c(=O)[nH]c2ccccc12 [compound 135],,,,0.03,0.10,0.40
"Cc1c(C(F)(F)C(=O)NC(C)c2cccc(C#N)n2)c(=O)[nH]c2ccc(F)c(F)c12 (single isomer, unassigned) [Compound 2587]",,,,5.65,5.60,100.00
"C[C@@H](NC(=O)C1(c2cc3c(F)c(F)ccc3[nH]c2=O)CC1)c1cc(C#N)ccn1 (single isomer, unassigned) [compound 2583]",,,,100.00,4.31,100.00
"C[C@H](NC(=O)C1(c2cc3c(F)c(F)ccc3[nH]c2=O)CC1)c1ncc(C#N)cc1F (single isomer, unassigned) [compound 2593]",,,,1.15,0.19,1.00
